From ChEMBL document CHEMBL4507291 (2021)

How the values were obtained:
[1] = target: C-X-C chemokine receptor type 2 (Homo sapiens) (UniProt P25025); experiment: Inhibition of Chemokine CXCR2 (IL-8RB) at 10 µM in the Eurofins-Panlabs radioligand binding assay (Eurofins_assay_244500); conditions: Compound concentration 10.0 uM
[2] = target: T1, Dual specificity mitogen-activated protein kinase kinase 3 (Homo sapiens) (UniProt P46734); experiment: MAP2K3 (MEK3) Kinase screen; conditions: Compound concentration 1.0 uM
T1 sequence (whole entry): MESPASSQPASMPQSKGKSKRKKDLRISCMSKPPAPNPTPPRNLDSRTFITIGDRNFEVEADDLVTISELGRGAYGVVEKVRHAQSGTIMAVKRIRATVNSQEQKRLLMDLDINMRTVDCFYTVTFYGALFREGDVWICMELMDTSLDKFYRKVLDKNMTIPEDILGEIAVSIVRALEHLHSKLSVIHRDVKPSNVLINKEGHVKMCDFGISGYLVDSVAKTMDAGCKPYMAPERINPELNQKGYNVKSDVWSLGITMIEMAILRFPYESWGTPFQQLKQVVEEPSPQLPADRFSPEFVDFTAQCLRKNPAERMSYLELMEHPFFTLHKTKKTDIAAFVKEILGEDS

[3] = target: Phosphatidylinositol 4-kinase beta (Homo sapiens) (UniProt Q9UBF8); experiment: PI4KB (PI4K beta) Kinase screen; conditions: Compound concentration 1.0 uM
Phosphatidylinositol 4-kinase beta (Homo sapiens), sequence (Q9UBF8 2-816 limits assumed): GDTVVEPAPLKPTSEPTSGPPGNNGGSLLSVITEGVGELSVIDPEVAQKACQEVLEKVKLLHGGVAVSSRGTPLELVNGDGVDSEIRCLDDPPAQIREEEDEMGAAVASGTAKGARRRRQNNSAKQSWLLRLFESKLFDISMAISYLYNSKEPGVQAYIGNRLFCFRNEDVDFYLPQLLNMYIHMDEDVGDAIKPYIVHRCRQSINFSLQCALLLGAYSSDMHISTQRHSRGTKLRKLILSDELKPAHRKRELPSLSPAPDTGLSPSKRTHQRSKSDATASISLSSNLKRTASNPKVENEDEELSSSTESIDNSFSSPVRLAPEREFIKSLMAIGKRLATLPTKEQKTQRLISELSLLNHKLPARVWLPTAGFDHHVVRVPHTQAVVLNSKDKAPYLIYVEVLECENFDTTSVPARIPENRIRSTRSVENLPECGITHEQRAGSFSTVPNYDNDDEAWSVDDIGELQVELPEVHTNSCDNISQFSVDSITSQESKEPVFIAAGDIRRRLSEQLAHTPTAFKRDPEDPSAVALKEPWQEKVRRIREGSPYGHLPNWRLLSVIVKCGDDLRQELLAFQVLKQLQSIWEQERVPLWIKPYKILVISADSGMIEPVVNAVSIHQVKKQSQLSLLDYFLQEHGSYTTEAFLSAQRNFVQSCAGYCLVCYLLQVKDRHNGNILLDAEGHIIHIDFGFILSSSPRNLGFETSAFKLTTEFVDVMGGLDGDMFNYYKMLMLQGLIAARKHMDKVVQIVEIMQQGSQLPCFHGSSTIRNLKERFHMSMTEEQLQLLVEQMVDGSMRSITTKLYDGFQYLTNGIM

[4] = target: Mitogen-activated protein kinase 14 (Homo sapiens) (UniProt Q16539); experiment: MAPK14 (p38 alpha) Direct Kinase screen; conditions: Compound concentration 1.0 uM
[5] = target: Cannabinoid receptor 1 (Homo sapiens) (UniProt P21554); conditions: Compound concentration 10.0 uM
Bos taurus = organism: Bos taurus; experiment: Protein Serine/Threonine Kinase, PKA, Non-Selective Eurofins-Panlabs enzyme assay; assay type: protein-complex assay; design: substrate with concentration 370 µg/mL Histone Type III-S, incubation time 15 min, incubation temperature 25 °C; conditions: Compound concentration 10.0 uM
[6] = target: Protein kinase C gamma type (Homo sapiens) (UniProt P05129); experiment: PRKCG (PKC gamma) Kinase screen; conditions: Compound concentration 1.0 uM
[7] = target: T2, 5-hydroxytryptamine receptor 1A (Homo sapiens) (UniProt P08908); conditions: Compound concentration 10.0 uM
T2 sequence (whole entry): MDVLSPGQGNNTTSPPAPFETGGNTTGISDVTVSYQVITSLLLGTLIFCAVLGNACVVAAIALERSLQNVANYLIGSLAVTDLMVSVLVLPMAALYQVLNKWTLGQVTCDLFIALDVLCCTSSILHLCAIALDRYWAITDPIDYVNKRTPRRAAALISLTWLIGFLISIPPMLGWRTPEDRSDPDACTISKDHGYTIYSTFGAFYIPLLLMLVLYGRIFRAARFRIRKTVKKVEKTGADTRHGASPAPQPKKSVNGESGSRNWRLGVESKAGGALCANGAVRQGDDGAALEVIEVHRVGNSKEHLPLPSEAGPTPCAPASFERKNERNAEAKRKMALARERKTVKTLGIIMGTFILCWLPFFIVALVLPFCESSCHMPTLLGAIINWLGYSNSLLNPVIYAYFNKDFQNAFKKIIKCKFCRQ

[8] = target: Nociceptin receptor (Homo sapiens) (UniProt P41146); experiment: Orphanin ORL1 Eurofins-Panlabs radioligand binding assay; conditions: Compound concentration 10.0 uM
Nociceptin receptor (Homo sapiens), sequence (P41146 whole entry): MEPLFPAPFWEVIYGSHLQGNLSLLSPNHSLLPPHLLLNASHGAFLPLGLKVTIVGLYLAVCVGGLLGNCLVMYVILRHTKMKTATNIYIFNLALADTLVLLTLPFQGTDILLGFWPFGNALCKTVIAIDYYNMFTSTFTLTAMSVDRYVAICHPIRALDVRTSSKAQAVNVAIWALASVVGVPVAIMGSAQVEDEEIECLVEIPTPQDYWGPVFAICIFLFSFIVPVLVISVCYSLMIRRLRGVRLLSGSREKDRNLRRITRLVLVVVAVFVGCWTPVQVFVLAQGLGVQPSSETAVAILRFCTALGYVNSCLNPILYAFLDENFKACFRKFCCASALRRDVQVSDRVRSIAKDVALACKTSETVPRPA

[9] = target: Retinoic acid receptor RXR-alpha (Homo sapiens) (UniProt P19793); experiment: Retinoid X Receptor RXRalpha Eurofins-Panlabs radioligand binding assay; conditions: Compound concentration 10.0 uM
Retinoic acid receptor RXR-alpha (Homo sapiens), sequence (P19793 whole entry): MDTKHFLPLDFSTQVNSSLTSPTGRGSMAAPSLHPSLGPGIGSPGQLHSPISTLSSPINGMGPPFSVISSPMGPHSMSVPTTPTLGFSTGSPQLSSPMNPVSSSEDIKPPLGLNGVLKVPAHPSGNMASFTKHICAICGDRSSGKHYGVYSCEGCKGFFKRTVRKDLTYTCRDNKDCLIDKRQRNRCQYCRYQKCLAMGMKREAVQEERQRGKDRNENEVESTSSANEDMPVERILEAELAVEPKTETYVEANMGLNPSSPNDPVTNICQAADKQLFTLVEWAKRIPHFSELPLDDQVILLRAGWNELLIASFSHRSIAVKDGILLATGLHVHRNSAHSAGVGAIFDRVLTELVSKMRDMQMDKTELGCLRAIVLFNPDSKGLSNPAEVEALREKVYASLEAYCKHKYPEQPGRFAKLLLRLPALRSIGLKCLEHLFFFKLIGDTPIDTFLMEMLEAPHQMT

[10] = target: Tyrosine-protein kinase JAK1 (Homo sapiens) (UniProt P23458); experiment: JAK1 Kinase screen; conditions: Compound concentration 1.0 uM
Tyrosine-protein kinase JAK1 (Homo sapiens), sequence (P23458 whole entry): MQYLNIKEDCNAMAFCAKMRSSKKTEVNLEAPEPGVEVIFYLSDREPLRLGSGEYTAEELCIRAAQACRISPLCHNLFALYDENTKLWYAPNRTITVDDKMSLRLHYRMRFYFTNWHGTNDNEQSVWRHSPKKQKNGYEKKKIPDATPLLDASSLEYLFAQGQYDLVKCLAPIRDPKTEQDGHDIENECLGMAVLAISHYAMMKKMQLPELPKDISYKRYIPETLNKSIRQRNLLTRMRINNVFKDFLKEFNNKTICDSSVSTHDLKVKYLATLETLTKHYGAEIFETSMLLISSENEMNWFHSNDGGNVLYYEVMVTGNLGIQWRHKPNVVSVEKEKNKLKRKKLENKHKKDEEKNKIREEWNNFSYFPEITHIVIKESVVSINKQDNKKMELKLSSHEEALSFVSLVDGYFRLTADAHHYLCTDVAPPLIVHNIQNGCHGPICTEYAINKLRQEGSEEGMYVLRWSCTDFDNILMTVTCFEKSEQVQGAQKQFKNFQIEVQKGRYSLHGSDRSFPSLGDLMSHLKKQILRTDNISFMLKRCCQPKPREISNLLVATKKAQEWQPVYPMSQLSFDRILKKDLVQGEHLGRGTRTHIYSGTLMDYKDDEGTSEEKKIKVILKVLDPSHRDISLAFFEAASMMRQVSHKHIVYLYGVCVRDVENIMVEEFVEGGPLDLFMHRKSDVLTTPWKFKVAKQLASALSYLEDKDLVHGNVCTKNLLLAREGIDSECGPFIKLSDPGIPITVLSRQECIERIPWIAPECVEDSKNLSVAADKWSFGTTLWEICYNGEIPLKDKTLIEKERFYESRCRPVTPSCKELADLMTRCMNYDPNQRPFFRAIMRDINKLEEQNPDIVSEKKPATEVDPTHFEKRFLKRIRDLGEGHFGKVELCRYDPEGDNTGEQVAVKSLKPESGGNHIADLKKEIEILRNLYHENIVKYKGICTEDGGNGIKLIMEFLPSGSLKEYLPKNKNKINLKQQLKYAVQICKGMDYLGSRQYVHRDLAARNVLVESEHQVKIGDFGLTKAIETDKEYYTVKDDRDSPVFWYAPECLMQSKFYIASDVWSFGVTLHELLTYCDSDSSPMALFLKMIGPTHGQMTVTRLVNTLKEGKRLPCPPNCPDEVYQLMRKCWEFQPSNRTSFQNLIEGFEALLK

[11] = target: T3, Alpha-1A adrenergic receptor (Homo sapiens) (UniProt P35348); conditions: Rattus norvegicus; Compound concentration 10.0 uM
T3 sequence (whole entry): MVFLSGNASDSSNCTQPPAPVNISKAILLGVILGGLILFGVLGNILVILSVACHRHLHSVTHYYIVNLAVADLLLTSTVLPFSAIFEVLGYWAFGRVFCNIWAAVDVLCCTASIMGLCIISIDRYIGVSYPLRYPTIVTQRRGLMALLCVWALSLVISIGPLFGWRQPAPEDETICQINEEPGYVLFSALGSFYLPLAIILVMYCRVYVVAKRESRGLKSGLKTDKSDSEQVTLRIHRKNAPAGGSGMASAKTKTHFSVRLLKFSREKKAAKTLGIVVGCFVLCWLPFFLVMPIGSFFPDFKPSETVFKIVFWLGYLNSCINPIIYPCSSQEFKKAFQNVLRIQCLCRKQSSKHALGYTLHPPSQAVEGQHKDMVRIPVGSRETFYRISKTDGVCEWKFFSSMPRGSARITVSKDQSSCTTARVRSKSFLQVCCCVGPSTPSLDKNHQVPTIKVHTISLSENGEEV

[12] = target: T4, Alpha-2C adrenergic receptor (Homo sapiens) (UniProt P18825); experiment: Adrenergic alpha2C Eurofins-Panlabs radioligand binding assay; design: ligand concentration 1 nM, non-specific ligand with concentration 10 µM WB-4101, incubation time 60 min, incubation temperature 25 °C; conditions: Compound concentration 10.0 uM
T4 sequence (whole entry): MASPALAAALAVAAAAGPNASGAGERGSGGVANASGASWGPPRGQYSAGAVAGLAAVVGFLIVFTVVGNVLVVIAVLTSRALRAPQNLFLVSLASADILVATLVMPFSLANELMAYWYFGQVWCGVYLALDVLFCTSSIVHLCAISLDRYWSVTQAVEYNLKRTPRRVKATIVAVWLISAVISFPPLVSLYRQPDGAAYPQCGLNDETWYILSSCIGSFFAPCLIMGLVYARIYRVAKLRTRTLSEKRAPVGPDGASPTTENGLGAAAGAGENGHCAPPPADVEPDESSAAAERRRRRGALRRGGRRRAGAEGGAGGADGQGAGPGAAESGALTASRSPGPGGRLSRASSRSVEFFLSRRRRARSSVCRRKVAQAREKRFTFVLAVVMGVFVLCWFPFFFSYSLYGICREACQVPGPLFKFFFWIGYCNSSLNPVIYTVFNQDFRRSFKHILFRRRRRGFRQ

[13] = target: Myosin light chain kinase, smooth muscle (Homo sapiens) (UniProt Q15746); experiment: MYLK (MLCK) Kinase screen; conditions: Compound concentration 1.0 uM
[14] = target: Platelet-derived growth factor receptor beta (Homo sapiens) (UniProt P09619); experiment: PDGFRB (PDGFR beta) Kinase screen; conditions: Compound concentration 1.0 uM
Platelet-derived growth factor receptor beta (Homo sapiens), sequence (P09619 whole entry): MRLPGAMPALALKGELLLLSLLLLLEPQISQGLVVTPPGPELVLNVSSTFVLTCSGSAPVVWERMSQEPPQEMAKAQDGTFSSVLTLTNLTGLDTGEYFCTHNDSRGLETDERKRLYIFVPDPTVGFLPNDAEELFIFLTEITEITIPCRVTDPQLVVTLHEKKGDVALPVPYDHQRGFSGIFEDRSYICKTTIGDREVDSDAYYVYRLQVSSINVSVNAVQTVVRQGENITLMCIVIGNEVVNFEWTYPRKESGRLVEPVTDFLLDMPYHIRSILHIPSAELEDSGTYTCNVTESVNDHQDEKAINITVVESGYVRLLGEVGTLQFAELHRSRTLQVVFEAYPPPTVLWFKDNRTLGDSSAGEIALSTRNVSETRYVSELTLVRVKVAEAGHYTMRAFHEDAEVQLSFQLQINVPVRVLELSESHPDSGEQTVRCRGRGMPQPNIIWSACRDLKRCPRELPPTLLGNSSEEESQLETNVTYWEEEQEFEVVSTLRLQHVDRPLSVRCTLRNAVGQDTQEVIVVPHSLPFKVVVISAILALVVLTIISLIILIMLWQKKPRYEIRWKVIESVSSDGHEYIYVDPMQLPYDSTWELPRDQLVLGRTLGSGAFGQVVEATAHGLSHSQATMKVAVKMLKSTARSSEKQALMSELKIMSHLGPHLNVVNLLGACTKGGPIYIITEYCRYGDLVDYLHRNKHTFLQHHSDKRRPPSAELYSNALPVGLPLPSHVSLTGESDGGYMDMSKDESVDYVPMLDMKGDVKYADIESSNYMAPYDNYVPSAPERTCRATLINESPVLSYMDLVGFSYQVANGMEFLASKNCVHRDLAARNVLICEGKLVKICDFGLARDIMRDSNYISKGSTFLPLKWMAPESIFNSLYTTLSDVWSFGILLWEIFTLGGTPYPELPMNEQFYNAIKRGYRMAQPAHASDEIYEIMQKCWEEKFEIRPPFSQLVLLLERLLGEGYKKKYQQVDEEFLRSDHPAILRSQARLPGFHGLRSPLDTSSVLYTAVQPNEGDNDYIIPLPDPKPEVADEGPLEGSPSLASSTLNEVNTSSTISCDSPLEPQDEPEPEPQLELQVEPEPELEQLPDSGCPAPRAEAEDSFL

[15] = target: Histamine H1 receptor (Homo sapiens) (UniProt P35367); conditions: Compound concentration 10.0 uM
Histamine H1 receptor (Homo sapiens), sequence (P35367 whole entry): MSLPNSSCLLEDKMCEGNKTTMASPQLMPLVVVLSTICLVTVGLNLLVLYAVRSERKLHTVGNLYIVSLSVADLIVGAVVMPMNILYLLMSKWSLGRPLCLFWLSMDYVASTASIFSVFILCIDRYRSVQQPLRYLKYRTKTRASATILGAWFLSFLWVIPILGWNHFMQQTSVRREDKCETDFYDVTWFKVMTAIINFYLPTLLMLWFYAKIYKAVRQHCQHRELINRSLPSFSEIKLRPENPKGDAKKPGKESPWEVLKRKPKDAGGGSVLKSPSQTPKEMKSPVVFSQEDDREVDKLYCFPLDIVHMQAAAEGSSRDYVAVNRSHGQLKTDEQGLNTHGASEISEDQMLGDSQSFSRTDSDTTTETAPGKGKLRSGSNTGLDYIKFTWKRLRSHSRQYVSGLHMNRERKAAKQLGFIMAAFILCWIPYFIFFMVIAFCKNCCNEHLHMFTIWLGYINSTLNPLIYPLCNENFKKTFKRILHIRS

Measured: inhibition

C-X-C chemokine receptor type 2 (Homo sapiens), sequence (P25025 whole entry): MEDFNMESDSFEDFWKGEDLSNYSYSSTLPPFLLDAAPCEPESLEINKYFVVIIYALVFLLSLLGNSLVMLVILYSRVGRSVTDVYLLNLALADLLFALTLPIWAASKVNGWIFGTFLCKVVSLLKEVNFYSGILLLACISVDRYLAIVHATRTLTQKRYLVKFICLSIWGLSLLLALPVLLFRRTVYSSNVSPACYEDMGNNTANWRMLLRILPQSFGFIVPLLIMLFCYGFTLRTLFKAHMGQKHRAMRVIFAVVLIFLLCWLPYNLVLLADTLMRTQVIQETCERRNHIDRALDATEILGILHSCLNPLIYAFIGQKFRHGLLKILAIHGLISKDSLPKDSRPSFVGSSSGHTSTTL

C[C@@H]1CN(c2cc(-c3n[nH]c4ccc(OC5(C)CC5)cc34)ncn2)C[C@H](C)O1 [MLi-2]
inactive: [1] 1% | [2] -2.3% | [3] 1.46% | [4] 8.11% | [5] 20% | Bos taurus 16% | [6] 1.24% | [7] -6% | [8] 7% | [9] 4% | [10] -2.46% | [11] 9% | [12] 14% | [13] 10.9% | [14] 6.43% | [15] -4%
